Publication PMC2924936 (ACS chemical biology, 2010)
Read-outs that look alike come from different tables or passages of the source.

Assays:
[1] = biological target: T1, yeast NADPH-cytochrome P450 reductase (yCPR) (Saccharomyces cerevisiae, UniProt P16603); assay: SPR; assay type: binding
T1 sequence (P16603 34-691): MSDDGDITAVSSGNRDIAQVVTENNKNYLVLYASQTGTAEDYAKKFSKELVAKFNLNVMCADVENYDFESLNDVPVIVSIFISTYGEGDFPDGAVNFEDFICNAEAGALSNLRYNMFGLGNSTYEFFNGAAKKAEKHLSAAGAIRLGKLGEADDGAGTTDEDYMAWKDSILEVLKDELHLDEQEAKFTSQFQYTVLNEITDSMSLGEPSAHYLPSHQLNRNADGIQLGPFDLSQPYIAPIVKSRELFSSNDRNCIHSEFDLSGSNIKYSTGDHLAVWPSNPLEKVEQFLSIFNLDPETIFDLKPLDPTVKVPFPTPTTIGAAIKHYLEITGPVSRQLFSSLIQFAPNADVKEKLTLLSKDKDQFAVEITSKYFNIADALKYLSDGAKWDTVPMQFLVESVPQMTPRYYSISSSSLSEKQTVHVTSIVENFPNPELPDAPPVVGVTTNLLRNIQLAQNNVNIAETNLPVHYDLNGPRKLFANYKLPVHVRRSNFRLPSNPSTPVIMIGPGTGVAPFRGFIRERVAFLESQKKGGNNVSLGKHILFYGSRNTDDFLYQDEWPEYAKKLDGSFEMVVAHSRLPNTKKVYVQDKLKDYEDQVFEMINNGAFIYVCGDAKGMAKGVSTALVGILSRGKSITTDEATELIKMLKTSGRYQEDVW

[2] = biological target: T1, yeast NADPH-cytochrome P450 reductase (yCPR); assay: SPR; assay type: binding; remark: listed apart in the source

Structure (SMILES)	Kd [1] [nM]	Kd [2] [nM]
Cc1cc2nc3c(=O)[nH]c(=O)nc-3n(C[C@H](O)[C@H](O)[C@H](O)COP(=O)(O)O)c2cc1C [compound 7, FMN]	300	–
Cc1cc2nc3c(=O)[nH]c(=O)nc-3n(C[C@H](O)[C@H](O)[C@H](O)COP(=O)(O)OP(=O)(O)OC[C@H]3O[C@@H](n4cnc5c(N)ncnc54)[C@H](O)[C@@H]3O)c2cc1C [compound 8, FAD]	–	2300
